Measured values as given in PubChem BioAssay (NCI).
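The compound was tested at five concentrations on cells cultured in 96-well plates, with a 48-hour exposure period. GI50 marks 50% less growth. TGI marks complete inhibition of growth.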 Where a SMILES comes first, the peptide text is derived from it. [ ]: non-standard residue; d: D form. The star is where a group is joined. NMeF = CN[CH](Cc1ccccc1)C(=O)O; NMeV = CN[CH](C(=O)O)C(C)C; Boc = CC(C)(C)OC(=O)*; OBn = c1ccc(CO*)cc1

Key:
Assay in all cases: NCI anticancer screen, dose series, 48 h
786-0 renal = test system: 786-0 renal
ACHN renal = test system: ACHN renal
MDA-MB-435 = test system: MDA-MB-435
HOP-92 NSCLC = test system: HOP-92 NSCLC
SNB-19 CNS = test system: SNB-19 CNS
TK-10 renal = test system: TK-10 renal
RPMI-8226 leukemia = test system: RPMI-8226 leukemia
HL-60(TB) leukemia = test system: HL-60(TB) leukemia
SNB-75 CNS = test system: SNB-75 CNS
HS 578T breast = test system: HS 578T breast

SMILES	TGI (786-0 renal) [µM]	TGI (ACHN renal) [µM]	TGI (MDA-MB-435) [µM]	TGI (HOP-92 NSCLC) [µM]	TGI (SNB-19 CNS) [µM]	TGI (TK-10 renal) [µM]	TGI (RPMI-8226 leukemia) [µM]	TGI (HL-60(TB) leukemia) [µM]	TGI (SNB-75 CNS) [µM]	GI50 (786-0 renal) [µM]	GI50 (ACHN renal) [µM]	GI50 (MDA-MB-435) [µM]	GI50 (HOP-92 NSCLC) [µM]	GI50 (SNB-75 CNS) [µM]	GI50 (SNB-19 CNS) [µM]	GI50 (RPMI-8226 leukemia) [µM]	GI50 (HL-60(TB) leukemia) [µM]	GI50 (HS 578T breast) [µM]	TGI (HS 578T breast) [µM]	GI50 (TK-10 renal) [µM]
N/C(=N\OC(=O)NC(Cl)=C(Cl)Cl)c1cc(C(F)(F)F)cc(C(F)(F)F)c1	31.2	27.4	48.5	35.1	50.5	30.4	34.8	30												
O=C(/C=C/c1cccs1)c1ccsc1	> 100	42.6	39.8		50.8	97.6	45.4	42.1	89											
CC(C)C(NC(=O)OC(C)(C)C)C(=O)N(C)C(Cc1ccccc1)C(=O)N(C)C(C(=O)N(C)C(C(=O)OCc1ccccc1)C(C)C)C(C)C (centres undefined) (Boc-V[NMeF][NMeV][NMeV]-OBn; configuration not given here)	> 100	> 100			> 100	> 100	> 100	> 100												
COc1ccc(-c2cc(-c3ccccc3)c(C#N)c(=O)[nH]2)cc1	> 100	> 100		> 100	> 100	> 100	> 100	> 100	> 100											
O=C1Nc2ccccc2C12CC(c1ccccc1)=NN2 (centres undefined)	65.2	> 100	4.5	9.43	> 100		90.5	15.3	59.4	6.36	6.48	1.66	1.65	2.98	12.7	5.53	3.29			
CC(C)[C@@H](C(=O)O[C@@H]1/C=C/C(=O)O[C@@H](C)CCC/C=C/[C@@H]2C[C@H](O)C[C@H]21)[N+](C)(C)C	> 100	> 100	> 100		> 100	> 100	> 100	> 100	> 100	> 100	> 100	> 100		> 100	> 100	> 100	> 100	> 100	> 100	> 100
CCC(=N\NC(N)=S)/C(C)=N/O	> 100	> 100	> 100	> 100	> 100	> 100	> 100												> 100	
O=C1Cc2ccccc2N1/N=C\c1ccc(O)cc1	> 100	> 100		> 100	> 100	> 100	> 100		70.5											
BrP(NC1CCCCCC1)(c1ccccc1)(c1ccccc1)c1ccccc1	32.3	9.12	7.63		16.8	21.3	5.41	13.8											12.4	
COc1ccc(S(=O)(=O)O)cc1NS(=O)(=O)c1ccc(C)cc1	> 100	> 100	> 100		> 100	> 100	> 100	> 100	> 100										> 100	
O=C1C2Cc3ccccc3CN2C(=O)N1CN1CCN(CN2C(=O)C3Cc4ccccc4CN3C2=O)CC1 (centres undefined)	> 100	> 100		> 100	> 100	> 100	> 100	> 100	> 100											
